These results are taken from patent publication US7872046B2, “Crystalline form of a (3S)-aminomethyl-5-methyl-hexanoic acid prodrug and methods of use” (Xenoport, Inc., priority 2008, dated 2011).

Data set [1] in a line: Pregabalin pharmacokinetics following intracolonic administration in monkeys (Example 12). It counts as in vivo, cynomologus monkeys. As to conditions: 10 mg-eq PG/kg. As to the method: The pharmacokinetics of pregabalin and crystalline calcium (3S)-{[(1R)-isobutanoyloxyethoxy]carbonylaminomethyl}-5-methyl-hexanoate hydrate following intracolonic administration in monkeys was determined.
A group of four male cynomologus monkeys received an intracolonic dose of pregabalin or crystalline calcium (3S)-{[(1R)-isobutanoyloxyethoxy]carbonylaminomethyl}-5-methyl-hexanoate hydrate (10 mg-eq pregabalin/kg). A 7-day wash-out period was allowed between treatments. Blood samples (300 μL) were collected from all animals prior to dosing and at intervals up to 24 hours post-dosing and immediately quenched in tubes containing K2EDTA to prevent hydrolysis. Two aliquots (100 μL each) were immediately quenched with 300 μL methanol. All quenched blood samples were subsequently analyzed for (3S)-{[(1R)-isobutanoyloxyethoxy]carbonylaminomethyl}-5-methyl-hexanoate free acid and pregabalin using LC-MS/MS.
Pregabalin was obtained from Teva (Peteh Tiqva, Israel). Crystalline calcium (3S)-{[(1R)-isobutanoyloxyethoxy]carbonylaminomethyl}-5-methyl-hexanoate hydrate was synthesized from commercial pregabalin according to Examples 1-6.
Cynomologus monkeys (body weight approximately 2.5 kg to 5.0 kg) were used in the study. Monkeys were fasted overnight and for the first 4 hours after dose administration. Water was provided ad libitum. For intracolonic administration, pregabalin or crystalline calcium (3S)-{[(1R)-isobutanoyloxyethoxy]carbonylaminomethyl}-5-methyl-hexanoate hydrate was suspended in 0.5% methylcellulose/0.1% Tween 80 in sodium phosphate buffer at pH 7.4. Blood samples were analyzed and pharmacokinetic analysis performed as described in Example 14.
(§1) Blood concentration data for all analytes were analyzed by non-compartmental methods using WinNonlin (WinNonlin™ Software, version 5.2, Pharsight Corp. Mountain View, Calif.). Non-compartmental analysis was performed on individual profiles in each animal. All concentration values below the limit of quantitation (BLQ) were treated as 0 (zero) for the pharmacokinetic analysis. Low concentration values at predose were treated as BLQ. Nominal sample collection time points were used for the calculation of pharmacokinetic parameters. All concentration data were plotted using SigmaPlot (SigmaPlot™, Version 9.0, Systat Software Inc., Richmond, Calif.).
(§2) The maximum concentration (Cmax) and time to Cmax(Tmax) were obtained by observation. The apparent elimination half-life (T1/2) was obtained by linear regression of three or more log-transformed data points in the terminal phase. The area under the concentration versus time curve (AUClast) was obtained by the linear trapezoidal method using concentration data up to the last quantifiable concentration. The AUC value extrapolated to infinity (AUCinf) was calculated as: AUCinf=AUClast+Clast/λz where tlast is the time of the last quantifiable concentration (Clast) and λz is the rate constant of the apparent terminal elimination phase.
(§3) The bioavailability (F) of pregabalin after extravascular dosing of pregabalin or prodrug was calculated by comparison to data following intravenous administration of pregabalin as follows: F(%)=100×(AUCex/Doseex)/(AUCiv/Doseiv) where AUCex is the area under the pregabalin concentration versus time curve in μg×hr/mL following extravascular administration of pregabalin or crystalline calcium (3S)-{[(1R)-isobutanoyloxyethoxy]carbonylaminomethyl}-5-methyl-hexanoate hydrate formulation; Doseex is the extravascular dose expressed in mg-equivalents of pregabalin/kg body weight; AUCiv is the area under the pregabalin concentration versus time curve in μg×hr/mL following intravenous administration of pregabalin; and Doseiv is the intravenous dose expressed in mg-equivalents of pregabalin/kg body weight.

The nature of data set [2]: Pregabalin pharmacokinetics following administration of oral tablet formulations in monkeys (Example 14). It counts as in vivo, cynomolgus monkeys. As for the experimental part:
One group of four male cynomolgus monkeys was used for the study. The mean body weight was approximately 2.9 kg at the start of the study and increased over the 9 months of the study to approximately 3.4 kg. The animals were fasted overnight and for the first 4 hours of the study after administration of each test formulation. Water was provided ad libitum.
All formulations were evaluated in a single group of four fasted male cynomolgus monkeys with at least 5 days washout between treatments. The IR tablet formulation was administered at 75 mg-eq pregabalin (1 tablet per animal). Three different SR tablet formulations were dosed orally at either 75 mg-eq. pregabalin or 69 mg-eq. pregabalin (1 tablet each per animal).
Blood samples were obtained from all animals at intervals up to 24 hours post-dosing. Approximately 0.3 mL of blood was collected in pre-chilled K2EDTA tubes containing 0.3 mL of methanol. Within 30 minutes, the blood samples were stored at or below −70° C.
Quenched blood samples were frozen and stored at −20° C. prior to analysis. Samples were analyzed by a sensitive and specific LC-MS/MS method for simultaneous determination of (3S)-{[(1R)-isobutanoyloxyethoxy]carbonylaminomethyl}-5-methyl-hexanoate free acid and pregabalin concentrations.
as §1, §2
as §3, with “weight. […]” for “weight.”

For data set [3] the following is noted: dosed either orally or directly into the colon of a mammal; cited from earlier work.
A short description of data set [4]: Hygroscopicity of solid forms. It counts as physicochemical. As to conditions: solid material.
Where [5] appears, read: IR tablet, 75 mg-eq PG (22.4 mg-eq PG/kg).
[6] abbreviates: SR1 tablet, 75 mg-eq PG (22.3 mg-eq PG/kg).
The mark [7] stands for this setting: SR2 tablet, 69 mg-eq PG (21.1 mg-eq PG/kg).
Setting [8] is: SR tablet, 75 mg-eq PG (21.7 mg-eq PG/kg).

In general, Cmax refers to the peak of the concentration-time curve. As usually defined, the Tmax is the time from dosing to the highest level. As to `CC(C)C[C@H](CN)CC(=O)O` [Pregabalin, (3S)-aminomethyl-5-methyl-hexanoic acid], in data set [1] (male, monkey, whole blood, 10 mg/kg, read-out: AUCinf, pregabalin in blood, mean (SD)), the AUC(0-inf) was 3100 ng·h/mL. In addition, the AUC(0-t) in data set [1] (male, monkey, whole blood, 10 mg/kg, read-out: AUClast, pregabalin in blood, mean (SD)) was determined as 2200 ng·h/mL; in data set [2] (male, cynomolgus monkey, whole blood, LYRICA capsules, 150 mg-eq PG (52.4 mg-eq PG/kg), read-out: AUClast, pregabalin in blood, mean (SD)), 188000 ng·h/mL. Further, the Cmax in data set [1] (male, monkey, whole blood, 10 mg/kg, read-out: Cmax, pregabalin in blood, mean (SD)) worked out at 240 ng/mL; in data set [2] (male, cynomolgus monkey, whole blood, LYRICA capsules, 150 mg-eq PG (52.4 mg-eq PG/kg), read-out: Cmax, pregabalin in blood, mean (SD)) it was 21900 ng/mL. Further, in data set [1] (male, monkey, whole blood, 10 mg/kg, read-out: T1/2, pregabalin in blood, mean (SD) (converted)), the half-life is 6.15 h. The Tmax in data set [1] (male, monkey, whole blood, 10 mg/kg, read-out: Tmax, pregabalin in blood, mean (SD)) amounted to 0.5 h; in data set [2] (male, cynomolgus monkey, whole blood, LYRICA capsules, 150 mg-eq PG (52.4 mg-eq PG/kg), read-out: Tmax, pregabalin in blood, mean (SD)), 3 h. Besides, the bioavailability in data set [1] (male, monkey, whole blood, other: intracolonic, 8 mg/kg, read-out: F, bioavailability of pregabalin relative to IV pregabalin at 8 mg/kg, mean (SD)) stood at 2.7%. Further, in data set [2] (LYRICA capsules, 150 mg-eq PG (52.4 mg-eq PG/kg)), the “F, bioavailability (based on AUClast) relative to AUCinf of intravenous pregabalin at 8 mg/kg, mean (SD)” value is 41 (9) %.

In the case of `CC(C)C[C@H](CNC(=O)OC(C)OC(=O)C(C)C)CC(=O)O` (stereo partly drawn) [(1), (3S)-{[1-Isobutanoyloxyethoxy]carbonylaminomethyl}-5-methyl-hexanoic acid], in data set [3], the bioavailability as pregabalin result is reported as “high bioavailability”.

“calcium (3S)-{[(1R)-isobutanoyloxyethoxy]carbonylaminomethyl}-5-methyl-hexanoate hydrate [(3a)]”: in data set [1], the “AUCinf, pregabalin in blood, mean (SD)” value is 55.9 (12.1) μg × hr/mL; the “AUClast, pregabalin in blood, mean (SD)” value is 54.5 (11.3) μg × hr/mL; the “Cmax, pregabalin in blood, mean (SD)” value is listed as 7.54 (1.89) μg/mL; the “T1/2, pregabalin in blood, mean (SD)” value is listed as 4.17 (1.15) hr. Moreover, in data set [1], the “Tmax, pregabalin in blood, mean (SD)” value is given as 0.88 (0.25) hr. Further, in data set [2] (setting [5]), the “AUClast, pregabalin in blood, mean (SD)” value is given as 163 (25) μg × hr/mL; the “Cmax, pregabalin in blood, mean (SD)” value is 19.3 (2.4) μg/mL; the “F, bioavailability (based on AUClast) relative to AUCinf of intravenous pregabalin at 8 mg/kg, mean (SD)” value was 82 (13) %; the “Tmax, pregabalin in blood, mean (SD)” value is on record as 2.0 (1.4) hr. Moreover, in data set [2] (setting [6]), the “AUClast, pregabalin in blood, mean (SD)” value is recorded as 104 (16) μg × hr/mL; the “Cmax, pregabalin in blood, mean (SD)” value is on record as 7.2 (1.2) μg/mL; the “F, bioavailability (based on AUClast) relative to AUCinf of intravenous pregabalin at 8 mg/kg, mean (SD)” value is listed as 52 (6) %; the “Tmax, pregabalin in blood, mean (SD)” value is recorded as 8.0 (6.9) hr. In addition, in data set [2] (setting [7]), the “AUClast, pregabalin in blood, mean (SD)” value is 70 (1) μg × hr/mL; the “Cmax, pregabalin in blood, mean (SD)” value is 5.0 (0.3) μg/mL; the “F, bioavailability (based on AUClast) relative to AUCinf of intravenous pregabalin at 8 mg/kg, mean (SD)” value was 35 (9) %; the “Tmax, pregabalin in blood, mean (SD)” value is recorded as 14.0 (3.5) hr. In addition, in data set [2] (setting [8]), the “AUClast, pregabalin in blood, mean (SD)” value was 137 (40) μg × hr/mL; the “Cmax, pregabalin in blood, mean (SD)” value was 13.5 (3.2) μg/mL; the “F, bioavailability (based on AUClast) relative to AUCinf of intravenous pregabalin at 8 mg/kg, mean (SD)” value is listed as 70 (16) %; the “Tmax, pregabalin in blood, mean (SD)” value is recorded as 3.2 (1.5) hr. The hygroscopicity entry in data set [4] is “hygroscopic”.
